From US8772302B2, “GPR 119 agonists” (Cadila Healthcare Limited, priority 2009, dated 2014)
Like-named read-outs stand apart in the source and are kept apart here.

Columns and labels:
Sprague Dawley rats = assay: Feed intake in Sprague Dawley rats; type: in vivo, rat; details: cumulative feed intake vs vehicle; for inhibition in vivo at 25 mg/kg: Rattus norvegicus, ip
Excerpt: In Vivo Efficacy Studies: Feed Intake in Sprague Dawley Rats:
Sprague Dawley rats of 6-8 week age are used for this experiment they are kept for acclimatization in reversed light/dark cycle for 15 days. Animals will have free access to a standard chow diet and water during acclimatization period. After 15 days reversed light/dark cycle acclimatization animals are trained for fasting induced feed intake for 5 days till they show consistent feed intake. Grouping was done based on the monitored feed intake during the training days. On treatment day each group of animals are dosed with test compound or vehicle by appropriate routes of administration (orally or intraperitoneally). Exactly 30 min. after treatment, measured amount of standard chow diet is provided and recorded as O-min feed offered. Then subsequently 2, 4, 6 and 24 hour after O-min, feed intake is measured and the cumulative feed intakes are calculated. The change in cumulative feed intake as compared to vehicle treated control at each time point is calculated for test compound.

[1] = molecular target: T1, recombinant human GPR 119 receptor (Homo sapiens, UniProt Q8TDV5); assay: cAMP assay in stable cell line expressing recombinant human GPR 119 receptor; type: cell-based; details: intracellular cAMP
T1 construct: expressed in transfected cells
T1 sequence (Q8TDV5 1-335): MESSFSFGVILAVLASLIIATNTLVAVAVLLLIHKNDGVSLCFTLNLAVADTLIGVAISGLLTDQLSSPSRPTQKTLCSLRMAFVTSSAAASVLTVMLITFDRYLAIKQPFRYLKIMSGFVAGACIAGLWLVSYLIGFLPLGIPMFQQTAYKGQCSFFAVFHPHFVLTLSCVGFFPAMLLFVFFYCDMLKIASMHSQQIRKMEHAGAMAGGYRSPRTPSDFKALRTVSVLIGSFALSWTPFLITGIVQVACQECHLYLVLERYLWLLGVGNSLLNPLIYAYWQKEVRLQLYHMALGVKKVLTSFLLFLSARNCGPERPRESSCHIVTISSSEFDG
Excerpt: cAMP assay: A stable cell line expressing recombinant human GPR 119 receptor was established and used to investigate the efficacy of the compounds of the invention based on the intracellular levels of cyclic AMP (cAMP) using commercially available cAMP kits. Compounds of the invention produced a concentration dependent increase in cAMP level and EC50 values of representative compounds were provided in table 1.

C57/BL6 mice = assay: Oral glucose tolerance test (OGTT) in C57/BL6 mice; type: in vivo, mouse; details: serum glucose AUC, single oral dose, glucose load 3 gm/kg
Protocol: Oral Glucose Tolerance Tests (OGTT) in C57/BL6 Mice:
C57/BL6 mice of 6-8 week age are used for this experiment. Animals are grouped based on non-fasting serum glucose levels and kept on fasting for overnight (day before OGTT). On the experiment day, […], 30 min post dosing animals are bled for basal glucose level estimation and at the same time glucose load (3 gm/kg) will be administered per orally. Blood is collected at time points corresponding to 20, 40, 60 and 120 min after glucose load administration. Serum is separated for determination of glucose levels and change in area under curve for glucose is calculated and provided in table 4 as % reduction in AUC.

[2] = intraperitoneal, 25 mg/kg, 2 hour
[3] = intraperitoneal, 25 mg/kg, 4 hour
[4] = intraperitoneal, 25 mg/kg, 6 hour
[5] = intraperitoneal, 25 mg/kg, 24 hour

| Structure (SMILES) | % reduction in food in take, 2 hour (Sprague Dawley rats; [2]) | % reduction in food in take, 4 hour (Sprague Dawley rats; [3]) | % reduction in food in take, 6 hour (Sprague Dawley rats; [4]) | % reduction in food in take, 24 hour (Sprague Dawley rats; [5]) | % reduction in food in take, 2 hour (Sprague Dawley rats; oral, 50 mg/kg, 2 hour) | % reduction in food in take, 4 hour (Sprague Dawley rats; oral, 50 mg/kg, 4 hour) | % reduction in food in take, 6 hour (Sprague Dawley rats; oral, 50 mg/kg, 6 hour) | % reduction in food in take, 24 hour (Sprague Dawley rats; oral, 50 mg/kg, 24 hour) | other results |
| --- | --- | --- | --- | --- | --- | --- | --- | --- | --- |
| Cc1c(Oc2ccc([C@H]3CO[S@@](=O)OC3)cc2)ncnc1OC1CCN(c2ncccn2)CC1 [Example 5, cis-5-(4-((5-methyl-6-((1-(pyrimidin-2-yl)piperidin-4-yl)oxy)pyrimidin-4-yl)oxy)phenyl)-1,3,2-dioxathiane 2-oxide] | 35% | 17% | 21% | 8% |  |  |  |  |  |
| Cc1c(Oc2ccc([C@H]3CO[S@@](=O)OC3)cc2)ncnc1OC1CCN(C(=O)OC(C)(C)C)CC1 [Example 15, cis-tert-butyl 4-((5-methyl-6-(4-(2-oxido-1,3,2-dioxathian-5-yl)phenoxy)pyrimidin-4-yl)oxy)piperidine-1-carboxylate] |  |  |  |  |  |  |  |  | EC50 [1]: 4.2 nM; inhibition in vivo at 25 mg/kg (Sprague Dawley rats; intraperitoneal, 25 mg/kg, 2 hour, read-out: % reduction in food in take, 2 hour): 47%; inhibition in vivo at 25 mg/kg (Sprague Dawley rats; intraperitoneal, 25 mg/kg, 4 hour, read-out: % reduction in food in take, 4 hour): 31%; inhibition in vivo at 25 mg/kg (Sprague Dawley rats; intraperitoneal, 25 mg/kg, 6 hour, read-out: % reduction in food in take, 6 hour): 28%; inhibition in vivo at 25 mg/kg (Sprague Dawley rats; intraperitoneal, 25 mg/kg, 24 hour, read-out: % reduction in food in take, 24 hour): 19% |
| CC(C)(C)OC(=O)N1CCC(c2nc(COc3ccc([C@H]4CO[S@@](=O)OC4)cc3)cs2)CC1 [Example 17, cis-tert-butyl 4-(4-((4-(2-oxido-1,3,2-dioxathian-5-yl)phenoxy)methyl)thiazol-2-yl)piperidine-1-carboxylate] | 34% | 34% | 24% | 13% |  |  |  |  | % reduction in AUC at 50 mg/kg (C57/BL6 mice): 34% |
| CC(C)(C)OC(=O)N1CCC(c2nc(COc3ccc(C4COS(=O)OC4)cc3)cs2)CC1 (stereo not drawn) [Example 18, trans-tert-butyl 4-(4-((4-(2-oxido-1,3,2-dioxathian-5-yl)phenoxy)methyl)thiazol-2-yl)piperidine-1-carboxylate] |  |  |  |  |  |  |  |  | % reduction in AUC at 50 mg/kg (C57/BL6 mice): 11% |
| Cc1c(OCCCC2CCN(C(=O)OC(C)(C)C)CC2)ncnc1Oc1ccc(C2COS(=O)OC2)cc1 (stereo not drawn) [Example 20, cis-tert-butyl 4-(3-((5-methyl-6-(4-(2-oxido-1,3,2-dioxathian-5-yl)phenoxy)pyrimidin-4-yl)oxy)propyl)piperidine-1-carboxylate] |  |  |  |  |  |  |  |  | % reduction in AUC at 50 mg/kg (C57/BL6 mice): 25% |
| Cc1c(Oc2ccc(C[C@H]3CO[S@@](=O)OC3)cc2)ncnc1OC1CCN(c2nc(C(C)C)no2)CC1 [Example 29, cis-5-(4-((6-((1-(3-isopropyl-1,2,4-oxadiazol-5-yl)piperidin-4-yl)oxy)-5-methylpyrimidin-4-yl)oxy)benzyl)-1,3,2-dioxathiane 2-oxide] | 50% | 24% | 5% | 4% |  |  |  |  |  |
| Cc1c(Oc2ccc(C[C@H]3CO[S@](=O)OC3)cc2)ncnc1OC1CCN(c2nc(C(C)C)no2)CC1 [Example 30, trans-5-(4-((6-((1-(3-isopropyl-1,2,4-oxadiazol-5-yl)piperidin-4-yl)oxy)-5-methylpyrimidin-4-yl)oxy)benzyl)-1,3,2-dioxathiane 2-oxide] | 39% | 31% | 5% | 9% |  |  |  |  |  |
| CCc1cnc(N2CCC(Oc3ncnc(Oc4ccc(C[C@H]5CO[S@@](=O)OC5)cc4)c3C)CC2)nc1 [Example 31, cis-5-(4-((6-((1-(5-ethylpyrimidin-2-yl)piperidin-4-yl)oxy)-5-methylpyrimidin-4-yl)oxy)benzyl)-1,3,2-dioxathiane 2-oxide] | 28% | 34% | 28% | 9% |  |  |  |  |  |
| CCOC(=O)N1CCC(Oc2ncnc(Oc3ccc(C[C@H]4CO[S@@](=O)OC4)cc3)c2C)CC1 [Example 39, cis-ethyl 4-((5-methyl-6-(4-((2-oxido-1,3,2-dioxathian-5-yl)methyl)phenoxy)pyrimidin-4-yl)oxy)piperidine-1-carboxylate] |  |  |  |  |  |  |  |  | EC50 [1]: 94 nM |
| Cc1c(Oc2ccc([C@H]3CO[S@@](=O)OC3)cc2)ncnc1OC1CCN(C(=O)Nc2ccc(Cl)cc2Cl)CC1 [Example 45, cis-N-(2,4-dichlorophenyl)-4-((5-methyl-6-(4-(2-oxido-1,3,2-dioxathian-5-yl)phenoxy)pyrimidin-4-yl)oxy)piperidine-1-carboxamide] |  |  |  |  | 28% | 28% | 16% | 7% |  |
| Cc1c(Oc2ccc([C@H]3CO[S@@](=O)OC3)cc2)ncnc1OC1CCN(C(=O)OC(C)C)CC1 [Example 47, cis-isopropyl 4-((5-methyl-6-(4-(2-oxido-1,3,2-dioxathian-5-yl)phenoxy)pyrimidin-4-yl)oxy)piperidine-1-carboxylate] |  |  |  |  | 23% | 16% | 3% | 3% |  |
| Cc1c(Oc2ccc(C3COS(=O)OC3)cc2)ncnc1OC1CCN(C(=O)OC(C)C)CC1 (stereo not drawn) [Example 48, trans-isopropyl 4-((5-methyl-6-(4-(2-oxido-1,3,2-dioxathian-5-yl)phenoxy)pyrimidin-4-yl)oxy)piperidine-1-carboxylate] |  |  |  |  | 32% | 17% | 17% | 10% |  |
| CC(C)(C)OC(=O)N1CCC(c2nc(COc3ccc(CC4COS(=O)OC4)cc3)cs2)CC1 (stereo not drawn) [Example 55, cis-tert-butyl 4-(4-((4-((2-oxido-1,3,2-dioxathian-5-yl)methyl)phenoxy)methyl)thiazol-2-yl)piperidine-1-carboxylate] |  |  |  |  | 33% | 5.3% |  |  |  |
| CCc1cnc(N2CCC(Oc3ccc(C[C@H]4CO[S@@](=O)OC4)cc3)CC2)nc1 [Example 59, cis-5-(4-((1-(5-ethylpyrimidin-2-yl)piperidin-4-yl)oxy)benzyl)-1,3,2-dioxathiane 2-oxide] |  |  |  |  | 23% | 21% | 15% | 11% |  |
| CCc1cnc(N2CCC(Oc3ccc(C[C@H]4CO[S@](=O)OC4)cc3)CC2)nc1 [Example 60, trans-5-(4-((1-(5-ethylpyrimidin-2-yl)piperidin-4-yl)oxy)benzyl)-1,3,2-dioxathiane 2-oxide] |  |  |  |  | 39% | 31% | 24% | 5.3% |  |
| Cc1c(Oc2ccc(C[C@H]3CO[S@@](=O)OC3)cc2Cl)ncnc1OC1CCN(C(=O)OC(C)(C)C)CC1 [Example 63, cis-tert-butyl 4-((6-(2-chloro-4-((2-oxido-1,3,2-dioxathian-5-yl)methyl)phenoxy)-5-methylpyrimidin-4-yl)oxy)piperidine-1-carboxylate] |  |  |  |  | 44% | 41% | 25% | 15% | % reduction in AUC at 50 mg/kg (C57/BL6 mice): 31% |
